Target: T1, Ara1 (Saccharomyces cerevisiae, UniProt P38115)
T1 construct: Ni-NTA and Superdex 200; tag cleavage not mentioned; homodimer
Assay: X-ray crystallography of co-crystal, […] A
Conditions: co-crystallised with 5 mM NADPH, pH 6.5, 0.05 M CaCl2, 289 K; cofactor-binding site

Q: Which “X-ray crystallography of co-crystal, 2.00 A” value does the source give for `NC(=O)C1=CN([C@@H]2O[C@H](COP(=O)(O)OP(=O)(O)OC[C@H]3O[C@@H](n4cnc5c(N)ncnc54)[C@H](OP(=O)(O)O)[C@@H]3O)[C@@H](O)[C@H]2O)C=CC1` [NADPH] here?
A: Its value is “The structure of the Ara1–NADPH complex showed that a molecule of NADPH binds”.

From article PMC3818031 (Acta Crystallographica Section F: Structural Biology and …, 2013)
